These are literature values, as cited in US9795715B2, “Bone tissue engineering by ex vivo stem cells ongrowth into three-dimensional trabecular metal” (Zimmer Trabecular Metal Technology, Inc., priority 2004, dated 2017).

The subject of the data set is porcine embryos. As to conditions: 0.5 mg/mL.

In the case of hyaluronan, the “development of porcine embryos in culture” value is given as “increase the development of porcine embryos”.
